Holding throughout (assay): Kinase profiling screen (radioactive filter-binding assay)
Holding throughout (assay type): biochemical

One test has as its target T1, ASK1 (Homo sapiens, UniProt Q99683).
T1 sequence (Q99683 1-1374): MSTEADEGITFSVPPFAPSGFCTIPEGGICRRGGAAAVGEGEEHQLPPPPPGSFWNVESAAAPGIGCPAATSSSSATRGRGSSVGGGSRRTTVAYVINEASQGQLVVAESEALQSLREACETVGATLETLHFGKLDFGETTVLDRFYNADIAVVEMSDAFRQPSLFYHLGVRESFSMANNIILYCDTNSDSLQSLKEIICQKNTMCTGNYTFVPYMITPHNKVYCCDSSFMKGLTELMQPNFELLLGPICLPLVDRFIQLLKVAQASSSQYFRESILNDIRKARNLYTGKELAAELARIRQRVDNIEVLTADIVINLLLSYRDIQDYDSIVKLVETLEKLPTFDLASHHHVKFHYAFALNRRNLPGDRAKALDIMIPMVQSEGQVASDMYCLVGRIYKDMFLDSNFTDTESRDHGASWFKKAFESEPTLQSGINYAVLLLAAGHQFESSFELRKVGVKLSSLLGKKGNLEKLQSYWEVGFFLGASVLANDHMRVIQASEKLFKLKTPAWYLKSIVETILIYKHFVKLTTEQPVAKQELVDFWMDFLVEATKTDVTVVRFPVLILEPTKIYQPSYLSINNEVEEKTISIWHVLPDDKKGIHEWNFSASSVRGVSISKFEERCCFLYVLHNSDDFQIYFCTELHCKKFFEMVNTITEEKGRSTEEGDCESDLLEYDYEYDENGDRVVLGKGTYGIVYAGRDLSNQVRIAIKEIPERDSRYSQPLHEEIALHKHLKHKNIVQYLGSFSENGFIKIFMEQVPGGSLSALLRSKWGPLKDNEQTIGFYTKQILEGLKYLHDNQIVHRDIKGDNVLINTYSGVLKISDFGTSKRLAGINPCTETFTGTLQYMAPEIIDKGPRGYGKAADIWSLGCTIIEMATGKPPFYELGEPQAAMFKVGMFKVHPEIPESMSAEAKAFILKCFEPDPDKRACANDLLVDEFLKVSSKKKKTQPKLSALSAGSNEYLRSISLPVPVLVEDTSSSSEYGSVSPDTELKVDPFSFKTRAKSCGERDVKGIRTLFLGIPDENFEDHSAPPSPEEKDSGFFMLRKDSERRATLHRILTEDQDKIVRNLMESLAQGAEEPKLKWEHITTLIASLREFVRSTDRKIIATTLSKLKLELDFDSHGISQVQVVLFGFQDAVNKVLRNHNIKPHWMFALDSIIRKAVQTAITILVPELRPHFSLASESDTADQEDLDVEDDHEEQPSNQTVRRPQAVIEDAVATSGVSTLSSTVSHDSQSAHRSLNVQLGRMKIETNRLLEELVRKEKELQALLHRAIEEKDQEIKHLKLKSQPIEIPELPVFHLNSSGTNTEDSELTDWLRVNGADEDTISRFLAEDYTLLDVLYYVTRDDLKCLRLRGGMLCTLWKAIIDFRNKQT
As to conditions: 100 μM compound, 50 μM ATP; read-out: Kinase activity, % of activity in the absence of inhibitor. As to the method:
(§1) Profiling of 117 protein kinases with CoA, dpCoA and ADP was carried out at the International Centre for Protein Kinase Profiling at the University of Dundee. Each compound was tested in vitro, in duplicate, at 100 μM final concentration using recombinant kinases, model substrates and optimal concentrations of ATP. Bacterially expressed full-length His-Aurora A was used to determine the IC50 value for CoA (in the presence or absence of DTT), dpCoA, ADP and desulfo-CoA. The assay was performed in the presence of 5 μM competing ATP. To examine whether the inhibitory effect of CoA on Aurora A is modulated by TPX2, IC50 values for CoA were also generated in the presence and absence of 1 μg TPX2 (residues 1–43) fragment.

For a further test, the target named is JNK2 (Homo sapiens, UniProt P45984). As to conditions: 100 μM compound, 20 μM ATP; read-out: Kinase activity, % of activity in the absence of inhibitor. As to the method: as §1
The next test addresses MARK3 (Homo sapiens, UniProt P27448). As to conditions: 100 μM compound, 5 μM ATP; read-out: Kinase activity, % of activity in the absence of inhibitor. As to the method: as §1
A further test has as its target MLK1 (Homo sapiens, UniProt P80192). As to conditions: 100 μM compound, 20 μM ATP; read-out: Kinase activity, % of activity in the absence of inhibitor. As to the method:
as §1

In a further test the target is PKCα (Homo sapiens, UniProt P17252). The conditions noted are these: 100 μM compound, read-out: Kinase activity, % of activity in the absence of inhibitor. As to the method: as §1
Another test addresses T2, PKCζ (Homo sapiens, UniProt Q05513).
T2 sequence (Q05513 1-592): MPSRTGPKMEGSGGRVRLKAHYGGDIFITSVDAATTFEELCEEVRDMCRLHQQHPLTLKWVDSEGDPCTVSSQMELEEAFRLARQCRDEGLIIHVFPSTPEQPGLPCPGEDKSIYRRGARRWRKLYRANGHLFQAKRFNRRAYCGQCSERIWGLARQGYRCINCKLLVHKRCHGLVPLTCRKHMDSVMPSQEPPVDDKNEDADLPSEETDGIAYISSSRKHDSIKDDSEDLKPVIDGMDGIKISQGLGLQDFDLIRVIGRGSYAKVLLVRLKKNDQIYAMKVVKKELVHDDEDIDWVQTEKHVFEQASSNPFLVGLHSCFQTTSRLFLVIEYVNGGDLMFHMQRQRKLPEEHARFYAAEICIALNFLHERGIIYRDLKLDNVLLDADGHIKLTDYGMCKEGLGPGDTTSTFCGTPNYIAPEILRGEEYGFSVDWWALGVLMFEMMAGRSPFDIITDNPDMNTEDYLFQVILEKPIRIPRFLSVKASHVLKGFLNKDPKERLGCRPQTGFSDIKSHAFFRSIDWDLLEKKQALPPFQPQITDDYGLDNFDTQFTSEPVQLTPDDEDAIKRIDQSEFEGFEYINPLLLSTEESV
The conditions noted are these: 100 μM compound, 5 μM ATP; read-out: Kinase activity, % of activity in the absence of inhibitor. As to the method:
as §1

The target in the next test is RSK1 (Homo sapiens, UniProt Q15418). The conditions noted are these: 100 μM compound, 50 μM ATP; read-out: Kinase activity, % of activity in the absence of inhibitor. As to the method:
as §1

The target in the next test is RSK2 (Homo sapiens, UniProt P51812). As to conditions: 100 μM compound, 50 μM ATP; read-out: Kinase activity, % of activity in the absence of inhibitor. As to the method:
as §1

Like-named read-outs stand apart in the source and are kept apart here.

Sequence of RSK2 (P51812 whole entry): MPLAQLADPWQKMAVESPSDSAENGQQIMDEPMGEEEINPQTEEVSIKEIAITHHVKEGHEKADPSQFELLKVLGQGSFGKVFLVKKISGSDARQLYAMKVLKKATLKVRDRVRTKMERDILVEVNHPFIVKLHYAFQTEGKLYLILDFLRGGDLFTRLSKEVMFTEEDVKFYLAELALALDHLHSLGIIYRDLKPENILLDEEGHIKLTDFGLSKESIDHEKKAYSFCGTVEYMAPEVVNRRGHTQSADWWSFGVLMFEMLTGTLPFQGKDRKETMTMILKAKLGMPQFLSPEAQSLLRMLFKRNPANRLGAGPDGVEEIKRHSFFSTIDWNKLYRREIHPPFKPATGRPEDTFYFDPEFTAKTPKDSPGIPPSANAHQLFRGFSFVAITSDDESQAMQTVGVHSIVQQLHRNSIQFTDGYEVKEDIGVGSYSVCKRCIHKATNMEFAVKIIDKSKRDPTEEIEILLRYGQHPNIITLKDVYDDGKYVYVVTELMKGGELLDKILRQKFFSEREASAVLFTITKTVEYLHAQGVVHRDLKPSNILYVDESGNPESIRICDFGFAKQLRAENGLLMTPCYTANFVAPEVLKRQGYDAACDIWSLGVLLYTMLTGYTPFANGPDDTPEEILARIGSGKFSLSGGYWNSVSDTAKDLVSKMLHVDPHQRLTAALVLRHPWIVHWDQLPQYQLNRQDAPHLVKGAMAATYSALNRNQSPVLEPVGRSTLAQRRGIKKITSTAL
Sequence of RSK1 (Q15418 whole entry): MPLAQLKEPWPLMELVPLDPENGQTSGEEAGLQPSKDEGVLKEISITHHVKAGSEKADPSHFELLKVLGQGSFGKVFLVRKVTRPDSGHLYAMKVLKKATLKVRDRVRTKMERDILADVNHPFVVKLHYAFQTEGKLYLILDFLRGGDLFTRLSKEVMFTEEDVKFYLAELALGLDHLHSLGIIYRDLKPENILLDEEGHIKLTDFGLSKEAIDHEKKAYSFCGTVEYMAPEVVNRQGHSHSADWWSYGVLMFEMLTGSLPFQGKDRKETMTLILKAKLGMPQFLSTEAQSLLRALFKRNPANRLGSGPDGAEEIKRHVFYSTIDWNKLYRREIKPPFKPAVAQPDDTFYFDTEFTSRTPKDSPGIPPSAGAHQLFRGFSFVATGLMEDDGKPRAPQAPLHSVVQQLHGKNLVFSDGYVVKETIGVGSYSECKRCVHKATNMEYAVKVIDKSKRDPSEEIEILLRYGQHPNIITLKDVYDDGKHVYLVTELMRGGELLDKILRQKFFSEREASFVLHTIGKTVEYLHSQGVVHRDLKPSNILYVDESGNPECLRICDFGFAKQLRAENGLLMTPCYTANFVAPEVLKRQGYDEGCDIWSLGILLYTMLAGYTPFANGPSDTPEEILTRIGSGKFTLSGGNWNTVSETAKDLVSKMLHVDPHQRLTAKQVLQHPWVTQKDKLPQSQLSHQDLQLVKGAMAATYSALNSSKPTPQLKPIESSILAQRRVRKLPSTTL
Sequence of MARK3 (P27448 whole entry): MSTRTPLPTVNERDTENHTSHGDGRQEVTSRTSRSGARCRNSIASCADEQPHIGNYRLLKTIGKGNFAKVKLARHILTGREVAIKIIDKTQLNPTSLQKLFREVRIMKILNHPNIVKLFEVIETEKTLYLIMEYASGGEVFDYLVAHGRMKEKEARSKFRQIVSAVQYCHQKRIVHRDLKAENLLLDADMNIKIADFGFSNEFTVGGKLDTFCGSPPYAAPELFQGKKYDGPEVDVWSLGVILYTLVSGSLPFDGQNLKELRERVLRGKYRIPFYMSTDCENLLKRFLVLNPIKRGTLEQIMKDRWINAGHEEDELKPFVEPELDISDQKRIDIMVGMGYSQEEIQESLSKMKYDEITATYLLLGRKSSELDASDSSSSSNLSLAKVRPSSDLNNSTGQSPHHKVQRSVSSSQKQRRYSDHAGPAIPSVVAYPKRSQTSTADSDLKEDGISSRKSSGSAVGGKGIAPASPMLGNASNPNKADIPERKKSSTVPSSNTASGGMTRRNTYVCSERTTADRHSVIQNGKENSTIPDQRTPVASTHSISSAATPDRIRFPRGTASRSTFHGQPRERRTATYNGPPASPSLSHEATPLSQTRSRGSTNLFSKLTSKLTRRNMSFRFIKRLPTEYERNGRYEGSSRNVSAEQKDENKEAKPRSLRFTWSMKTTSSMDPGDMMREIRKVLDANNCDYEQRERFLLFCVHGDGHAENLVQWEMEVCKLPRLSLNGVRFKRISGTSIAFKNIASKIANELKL
Sequence of JNK2 (P45984 whole entry): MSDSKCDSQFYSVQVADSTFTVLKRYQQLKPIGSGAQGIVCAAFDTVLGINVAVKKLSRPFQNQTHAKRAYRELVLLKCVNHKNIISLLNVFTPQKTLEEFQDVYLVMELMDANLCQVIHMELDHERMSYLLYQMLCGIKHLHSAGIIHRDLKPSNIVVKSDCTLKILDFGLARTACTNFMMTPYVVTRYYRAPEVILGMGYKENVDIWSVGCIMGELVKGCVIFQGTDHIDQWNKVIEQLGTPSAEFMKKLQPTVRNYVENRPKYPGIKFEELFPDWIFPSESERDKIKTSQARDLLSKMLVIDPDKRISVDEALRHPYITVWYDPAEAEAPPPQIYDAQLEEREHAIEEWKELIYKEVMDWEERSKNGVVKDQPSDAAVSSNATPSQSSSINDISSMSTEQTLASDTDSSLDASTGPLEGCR
Sequence of MLK1 (P80192 whole entry): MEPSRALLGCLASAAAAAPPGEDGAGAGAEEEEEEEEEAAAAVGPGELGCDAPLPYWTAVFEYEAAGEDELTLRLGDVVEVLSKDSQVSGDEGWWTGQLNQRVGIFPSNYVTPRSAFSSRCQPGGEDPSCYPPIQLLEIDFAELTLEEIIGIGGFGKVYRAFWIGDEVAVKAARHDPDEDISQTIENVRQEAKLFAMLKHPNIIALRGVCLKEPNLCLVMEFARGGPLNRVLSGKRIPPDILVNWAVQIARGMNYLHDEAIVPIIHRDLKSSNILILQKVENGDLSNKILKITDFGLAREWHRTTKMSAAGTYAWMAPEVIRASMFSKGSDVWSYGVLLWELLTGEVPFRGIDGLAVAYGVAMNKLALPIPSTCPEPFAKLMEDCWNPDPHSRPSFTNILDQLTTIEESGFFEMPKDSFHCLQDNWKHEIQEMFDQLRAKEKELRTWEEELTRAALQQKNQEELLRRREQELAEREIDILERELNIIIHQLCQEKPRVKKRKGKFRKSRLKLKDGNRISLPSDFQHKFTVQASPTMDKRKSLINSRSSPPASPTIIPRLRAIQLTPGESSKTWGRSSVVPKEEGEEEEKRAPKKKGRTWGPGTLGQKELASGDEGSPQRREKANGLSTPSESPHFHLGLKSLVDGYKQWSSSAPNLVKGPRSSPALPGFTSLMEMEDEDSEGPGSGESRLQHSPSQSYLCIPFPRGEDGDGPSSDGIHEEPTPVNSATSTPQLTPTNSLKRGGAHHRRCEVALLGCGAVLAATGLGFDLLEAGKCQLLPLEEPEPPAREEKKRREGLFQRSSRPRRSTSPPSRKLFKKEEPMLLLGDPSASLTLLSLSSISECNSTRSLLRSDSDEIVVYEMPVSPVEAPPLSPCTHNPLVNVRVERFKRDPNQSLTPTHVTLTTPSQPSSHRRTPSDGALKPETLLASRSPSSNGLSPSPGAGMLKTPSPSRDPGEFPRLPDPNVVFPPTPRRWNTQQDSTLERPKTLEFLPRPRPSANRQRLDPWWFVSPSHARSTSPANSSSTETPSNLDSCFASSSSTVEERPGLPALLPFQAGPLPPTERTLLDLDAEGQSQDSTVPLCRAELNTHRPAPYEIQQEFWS

In the case of `Nc1ncnc2c1ncn2C1OC(COP(=O)(O)OP(=O)(O)O)C(O)C1O` (stereo not drawn) [ADP], the activity at 100 µM came out at 70.2% at ASK1; 57.3% on JNK2; 14.8% on MARK3; 41.4% at MLK1; 38.6% at PKCα (5 μM ATP); 76.5% on PKCα (20 μM ATP). Also, the activity at 100 µM came to 37.7% at PKCζ, 58.5% on RSK1 and 47.9% on RSK2.

Turning to `CC(C)(COP(=O)(O)OP(=O)(O)OC[C@H]1O[C@@H](n2cnc3c(N)ncnc32)[C@H](O)[C@@H]1OP(=O)(O)O)[C@@H](O)C(=O)NCCC(=O)NCCS` [CoA, Coenzyme A], the activity at 100 µM at ASK1 worked out at 129%; on JNK2, 93.9%; on MARK3 it was 88.9%; at MLK1 it was 110%; on PKCα (5 μM ATP) it was 104%; on PKCα (20 μM ATP) it was 78.1%. The activity at 100 µM on PKCζ stood at 99.3%; at RSK1, 97.2%; on RSK2 it was 96.5%.

Turning to `CC(C)(COP(=O)(O)OP(=O)(O)OCC1OC(n2cnc3c(N)ncnc32)C(O)C1O)C(O)C(=O)NCCC(=O)NCCS` (stereo not drawn) [dpCoA, dephospho-CoA], the activity at 100 µM was determined as 88.6% at ASK1; 76.1% at JNK2; 46.2% at MARK3; 76% at MLK1; 76.8% on PKCα (5 μM ATP); 88.9% at PKCα (20 μM ATP). In addition, the activity at 100 µM on PKCζ was found to be 89.9%; on RSK1, 98.9%; on RSK2 it was 62.9%.
